Counter-ions that a name gives are not always drawn.
target: ROCK2 (Homo sapiens, UniProt O75116); assay: ROCK2 kinase inhibition assay (LABCHIP 3000 Reader, FITC peptide substrate); details: not given;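 also: rho kinase reaction read by separating phosphorylated from unphosphorylated peptide on chip, with inhibition of kinase activity computed per concentration across a dose-response series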
Sequence (O75116 whole entry, species assumed): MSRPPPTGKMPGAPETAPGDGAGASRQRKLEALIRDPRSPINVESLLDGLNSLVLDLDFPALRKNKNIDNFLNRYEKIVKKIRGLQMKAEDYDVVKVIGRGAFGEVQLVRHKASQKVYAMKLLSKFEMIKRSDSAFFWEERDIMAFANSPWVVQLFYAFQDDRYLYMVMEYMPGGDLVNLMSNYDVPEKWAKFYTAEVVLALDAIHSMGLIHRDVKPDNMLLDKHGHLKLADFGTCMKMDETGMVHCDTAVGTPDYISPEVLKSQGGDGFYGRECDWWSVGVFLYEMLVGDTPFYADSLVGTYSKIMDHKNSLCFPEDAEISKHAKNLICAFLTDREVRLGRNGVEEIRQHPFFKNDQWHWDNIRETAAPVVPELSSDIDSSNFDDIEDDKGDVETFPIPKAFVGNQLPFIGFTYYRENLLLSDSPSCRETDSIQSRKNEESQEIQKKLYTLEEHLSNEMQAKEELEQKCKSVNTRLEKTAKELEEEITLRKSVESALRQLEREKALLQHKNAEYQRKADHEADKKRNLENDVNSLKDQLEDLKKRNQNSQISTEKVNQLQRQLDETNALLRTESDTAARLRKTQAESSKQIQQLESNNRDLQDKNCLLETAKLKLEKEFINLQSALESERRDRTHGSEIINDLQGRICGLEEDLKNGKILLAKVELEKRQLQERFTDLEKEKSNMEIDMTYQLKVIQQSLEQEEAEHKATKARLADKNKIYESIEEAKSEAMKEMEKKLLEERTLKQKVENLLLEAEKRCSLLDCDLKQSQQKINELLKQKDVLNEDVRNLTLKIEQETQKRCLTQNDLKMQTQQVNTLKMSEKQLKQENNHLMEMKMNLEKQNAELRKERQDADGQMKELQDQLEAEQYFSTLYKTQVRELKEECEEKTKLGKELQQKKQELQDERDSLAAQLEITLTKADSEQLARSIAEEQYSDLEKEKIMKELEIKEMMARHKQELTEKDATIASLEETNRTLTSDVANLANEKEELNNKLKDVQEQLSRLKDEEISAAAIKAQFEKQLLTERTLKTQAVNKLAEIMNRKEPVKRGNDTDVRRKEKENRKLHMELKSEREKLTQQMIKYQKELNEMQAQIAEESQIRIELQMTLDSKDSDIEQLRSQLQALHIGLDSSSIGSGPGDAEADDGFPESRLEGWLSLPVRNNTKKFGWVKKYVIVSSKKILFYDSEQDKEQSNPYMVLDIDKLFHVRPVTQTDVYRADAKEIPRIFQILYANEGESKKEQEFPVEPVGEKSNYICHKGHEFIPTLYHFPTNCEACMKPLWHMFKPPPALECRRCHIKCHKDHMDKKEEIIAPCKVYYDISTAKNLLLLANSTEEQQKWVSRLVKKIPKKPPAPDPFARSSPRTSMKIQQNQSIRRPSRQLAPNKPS

Row | IC50 [nM] | SMILES
1 | 50 to 250 | Cn1nc(C(=O)N[C@H]2CC3(C2)C[C@H](Oc2ncccc2C(N)=O)C3)cc1OCC(F)(F)C(F)F (stereo partly drawn) [Example 87, 2-((aR)-6-(1-methyl-5-(2,2,3,3-tetrafluoropropoxy)-1H-pyrazole-3-carboxamido)spiro[3.3]heptan-2-yl)oxy) nicotinamide, trifluoroacetate]
2 | 250 to 2500 | Cc1nc(-c2ccccn2)sc1C(=O)N[C@H]1CC2(C1)C[C@H](Oc1ncccc1C(N)=O)C2 (stereo partly drawn) [Example 88, N-((aR)-6-((3-carbamoyl-pyridin-2-yl)oxy)spiro[3.3]heptan-2-yl)-4-methyl-2-(pyridin-2-yl)thiazole-5-carboxamide, trifluoroacetate]
3 | 250 to 2500 | Cn1nc(-c2ccccc2)cc1C(=O)N[C@H]1CC2(C1)C[C@H](Oc1ncccc1C(N)=O)C2 (stereo partly drawn) [Example 89, 2-((aR)-6-(1-methyl-3-phenyl-1H-pyrazole-5-carboxamido)spiro[3.3]heptan-2-yl)oxy) nicotinamide, trifluoroacetate]
4 | 50 to 250 | Cn1nc(C(=O)N[C@H]2CC3(C2)C[C@H](Oc2ncccc2C(N)=O)C3)cc1OCCC(F)(F)F (some centres unmarked) [Example 91, 2-((aR 6-(1-methyl-5-(3,3,3-trifluoropropoxy)-1H-pyrazole-3-carboxamido)spiro[3.3]heptan-2-yl)oxy) nicotinamide, trifluoroacetate]
5 | 50 to 250 | Cc1nc(N2CCC(F)(F)C2)sc1C(=O)N[C@H]1CC2(C1)C[C@H](Oc1ncccc1C(N)=O)C2 (stereo partly drawn) [Example 92, N-((aR)-6-((3-carbamoylpyridin-2-yl)oxy)spiro[3.3]heptan-2-yl)-2-(3,3-difluoropyrrolidin-1-yl)-4-methylthiazole-5-carboxamide, trifluoroacetate]
6 | 5 to 50 | CC(C)(O)Cn1nc(C(=O)N[C@H]2CC3(C2)C[C@H](Oc2ncccc2C(N)=O)C3)c2cc(Br)ccc21 (stereo partly drawn) [Example 93, 5-bromo-N-((aR)-6-((3-carbamoyl-pyridin-2-yl)oxy)spiro[3.3]heptan-2-yl)-1-(2-hydroxy-2-methylpropyl)-1H-indazole-3-carboxamide, trifluoroacetate]
7 | 50 to 250 | Cn1nc(C(=O)N[C@H]2CC3(C2)C[C@H](Oc2ncccc2C(N)=O)C3)cc1OCC(F)F (stereo partly drawn) [Example 95, 2-((aR)-6-(5-(2,2-difluoroethoxy)-1-methyl-1H-pyrazole-3-carboxamido)spiro-[3.3]heptan-2-yl)oxy) nicotinamide, trifluoroacetate]
8 | 50 to 250 | Cc1nc(-c2ccccc2)sc1C(=O)N[C@H]1CC2(C1)C[C@H](Oc1ncccc1C(N)=O)C2 (stereo partly drawn) [Example 96, N-((aR)-6-((3-carbamoylpyridin-2-yl)oxy)spiro[3.3]heptan-2-yl)-4-methyl-2-phenylthiazole-5-carboxamide, trifluoroacetate]
9 | 5 to 50 | CC(C)(O)Cn1nc(C(=O)N[C@H]2CC3(C2)C[C@H](Oc2ncccc2C(N)=O)C3)c2ccc(OC(F)(F)F)cc21 (stereo partly drawn) [Example 98, N-((aR)-6-((3-carbamoylpyridin-2-yl)oxy)spiro[3.3]heptan-2-yl)-1-(2-hydroxy-2-methylpropyl)-6-(trifluoromethoxy)-1H-indazole-3-carboxamide, trifluoroacetate]
10 | 5 to 50 | COc1ccc2c(C(=O)N[C@H]3CC4(C3)C[C@H](Oc3ncccc3C(N)=O)C4)cnn2c1CCC(F)(F)F (stereo partly drawn) [Example 99, N-((aR)-6-((3-carbamoylpyridin-2-yl)oxy)spiro[3.3]heptan-2-yl)-6-methoxy-7-(3,3,3-trifluoropropyl) pyrazolo[1,5-a]pyridine-3-carboxamide, trifluoroacetate]
11 | 5 to 50 | Cn1cc(-c2c(OCC(C)(C)O)ccc3c(C(=O)N[C@H]4CC5(C4)C[C@H](Oc4ncccc4C(N)=O)C5)cnn23)cn1 (stereo partly drawn) [Example 101, N-((aR)-6-((3-carbamoylpyridin-2-yl)oxy)spiro[3.3]heptan-2-yl)-6-(2-hydroxy-2-methylpropoxy)-7-(1-methyl-1H-pyrazol-4-yl)pyrazolo[1,5-a]pyridine-3-carboxamide, trifluoroacetate]
12 | 5 to 50 | CC(C)(O)Cn1nc(C(=O)N[C@H]2CC3(C2)C[C@H](Oc2ncccc2C(N)=O)C3)c2ccccc21 (stereo partly drawn) [Example 102, N-((aR)-6-((3-carbamoylpyridin-2-yl)oxy)spiro[3.3]heptan-2-yl)-1-(2-hydroxy-2-methylpropyl)-1H-indazole-3-carboamide, trifluoroacetate]
13 | < 5 | NC(=O)c1cccnc1O[C@H]1CC2(C[C@H](NC(=O)c3cc(C(F)(F)F)cc4[nH]c(=O)[nH]c34)C2)C1 (stereo partly drawn) [Example 104, N-((aR)-6-((3-carbamoylpyridin-2-yl)oxy)spiro[3.3]heptan-2-yl)-2-oxo-6-(trifluoromethyl)-2,3-dihydro-1H-benzo[d]imidazole-4-carboxamide, trifluoroacetate]
14 | < 5 | Cn1cc(-c2ccc3c(C(=O)N[C@H]4CC5(C4)C[C@H](Oc4ncccc4C(N)=O)C5)nn(C(F)F)c3c2)cn1 (stereo partly drawn) [Example 106, N-((aR)-6-((3-carbamoylpyridin-2-yl)oxy)spiro[3.3]heptan-2-yl)-1-(difluoromethyl)-6-(1-methyl-1H-pyrazol-4-yl)-1H-indazole-3-carboxamide, trifluoroacetate]
15 | 5 to 50 | NC(=O)c1cccnc1O[C@H]1CC2(C[C@H](NC(=O)c3cnn4c(C5CC5)c(OCCC(F)(F)F)ccc34)C2)C1 (stereo partly drawn) [Example 107, N-((aR)-6-((3-carbamoylpyridin-2-yl)oxy)spiro[3.3]heptan-2-yl)-7-cyclopropyl-6-(3,3,3-trifluoropropoxy) pyrazolo[1,5-a]pyridine-3-carboxamide, trifluoroacetate]
16 | < 5 | CC(C)(O)COc1ccc2c(C(=O)N[C@H]3CC4(C3)C[C@H](Oc3ncccc3C(N)=O)C4)nn(C(F)F)c2c1 (stereo partly drawn) [Example 108, N-((aR)-6-((3-carbamoylpyridin-2-yl)oxy)spiro[3.3]heptan-2-yl)-1-(difluoromethyl)-6-(2-hydroxy-2-methylpropoxy)-1H-indazole-3-carboxamide, trifluoroacetate]
17 | 50 to 250 | CS(=O)(=O)c1cccc(C(=O)N[C@H]2CC3(C2)C[C@H](Oc2ncccc2C(N)=O)C3)c1 (stereo partly drawn) [Example 109, 2-((aR)-6-(3-(methylsulfonyl)benzamido)spiro[3.3]heptan2-- yl)oxy)nicotinamide, trifluoroacetate]

same assay, conditions: read-out: ROCK2 Activity (ROCK2 IC50); 5 μM ATP, 1.5 μM peptide substrate, pH 7.5

Row | SMILES | IC50 [nM]
18 | CC(C)(O)Cn1nc(C(=O)NC2CC3(C2)CC(Oc2ncccc2C(N)=O)C3)c2ccc(F)cc21 [Example 97, N-((aR)-6-((3-carbamoylpyridin-2-yl)oxy)spiro[3.3]heptan-2-yl)-6-fluoro-1-(2-hydroxy-2-methylpropyl)-1H-indazole-3-carboxamide, trifluoroacetate] | 5 to 50
19 | NC(=O)c1cccnc1O[C@H]1CC2(C[C@H](NC(=O)c3nn(C(F)F)c4cc(F)ccc34)C2)C1 (stereo partly drawn) [Example 103, N-((aR)-6-((3-carbamoylpyridin-2-yl)oxy)piro[3.3]heptan-2-yl-1-(difluoromethyl)-6-fluoro-1H-indazole-3-carboxamide, trifluoroacetate] | < 5
20 | NC(=O)c1cccnc1OC1CC2(CC(NC(=O)c3nn(CCC(F)(F)F)c4cc(F)ccc34)C2)C1 [Example 105, N-((aR)-6-((3-carbamoylpyridin-2-yl)oxy)spiro[3.3]heptan-2-yl)-6-fluoro-1-(3,3,3-trifluoropropyl)-1H-indazole-3-carboxamide, trifluoroacetate] | < 5

From US10829501B2 (BRISTOL-MYERS SQUIBB COMPANY, priority 2016, dated 2020)
